# System: patients with certain neurological and mental disorders
# Test: Therapeutic effects of psilocybin in selected patients (patient experiences)
# Type: in vivo, human
# Conditions: identified group of selected patients after intaking the psilocybin products
# Description: In one aspect, psilocybin is effective in treating and reducing ADHD, anxiety, ADD and the symptoms of Tourette Syndrome. […] Some patients suffered significant side effects when taking prescription drugs for the respective indications.
smiles,measurement,value
"CN(C)CCc1c[nH]c2cccc(OP(=O)(O)O)c12 [Psilocybin, psilocybin]",side effects,minimal side effects
